Assay results: US9931335B2, “Desethylhydroxychloroquine for the treatment of diseases associated with inflammation” (The Board of Trustees of the Leland Stanford Junior …, priority 2013, dated 2018)
Where two headings read alike, the source gives them in different places.

Tests used:
[1] = system: TNF production by human peripheral blood mononuclear cells (PBMCs); assay: LPS-stimulated TNF production by human PBMCs (ELISA); assay type: cell-based; conditions: LPS 10 μg/ml, 10, 25 and 50 μM compound, 14 hours; vs LPS alone
Protocol: DHCQ reduced the production of the pro-inflammatory cytokine tumor necrosis factor (TNF) by human peripheral blood mononuclear cells (PBMCs) in response to pro-inflammatory lipopolysaccharide (LPS) stimulation (FIG. 10). Human PBMCs were isolated using Ficoll, 200,000 PBMCs were added to each well of a 96-well plate, and stimulated with LPS 10 μg/ml in the presence of a range of concentrations from 0 to 50 μM DHCQ, or 0 to 50 μM HCQ, for 14 hours, following which culture supernatants were collected and TNF measured by ELISA. Assays were run in triplicate.
Isolation of human PBMCs and monocytes. The Ficoll-Paque™ Plus (Cat; 17-1440-03GE Healthcare) was used to isolate human peripheral blood mononuclear cells (PBMCs) from blood collected from healthy donors. For cell culture, the isolated PBMCs were resuspended in culture medium (RPM11640) containing 10% FCS and antibiotics (penicillin 100 IU/mL and streptomycin 100 μg/mL). Monocyte Isolation Kit II (Cat; 130-091-153, Miltenyi Biotec) was used to isolate monocytes from the suspension of human PBMCs.
Stimulation assays. […]
Readout. […] For each assay, a parallel well treated identically was prepared and level of LDH measured to assure no evidence of cell death was induced by drug treatment.

[2] = system: established high-fat diet-induced NASH in C57BL/6 mice; assay: High fat diet-induced NASH in mice, treatment of established disease; assay type: in vivo, mouse; conditions: 6 weeks; for steatosis percentage of whole area (liver histology): 10 mg/kg/day started after 2 weeks of high-fat diet; for steatosis percentage of whole area (liver histology) / serum ALT / serum AST: vs vehicle
Protocol: To evaluate the effect of DHCQ and HCQ on established NASH, C57BL/6 mice (8 per group) were fed a high-fat “western-style” diet (60% caloric content from fat; Taconic). Following initiation of the high-fat diet, after 2 weeks blood was drawn and analyzed for abnormal elevations in serum markers for NASH including AST and ALT. The AST and ALT became abnormally elevated following the initial 2 weeks of high-fat diet, and at that time treatment was initiated with HCQ (10 mg/kg/day), DHCQ (10 mg/kg/day), or vehicle control. After 6 weeks of treatment, mice were fasted and blood was collected for serum analysis and mice sacrificed for histologic analysis of liver pathology. FIG. 8A presents micrographs of representative liver tissue sections at both 10× and 20× magnification. […] AST and ALT levels in the collected serum were measured and 2-tailed T Tests used to compare levels between groups.

[3] = system: inflammatory cytokines in mouse OA synovium; assay: Multiplex cytokine assay of OA synovial tissue from treated DMM mice; assay type: in vivo; conditions: for levels of inflammatory cytokines in OA synovium vs vehicle control: heat map, multiplex bead assay
Text: From a parallel experiment to the mouse OA experiment presented in Example 12 and FIG. 19, following in vivo dosing and at the time of termination OA synovial tissue was microdissected, homogenized to form a lysate, centrifuged, and supernatants assayed for levels of inflammatory cytokines using a multiplex bead-based cytokine assay (BioRad Laboratories, Hercules, Calif.).

[4] = system: diet-induced obesity in C57BL/6 mice; assay: Mouse diet-induced obesity: type II diabetes, hyperlipidemia and metabolic syndrome; assay type: in vivo; conditions: 10 mg/kg/day, 6 weeks; for total cholesterol / triglycerides / blood glucose: vs vehicle; for blood glucose: two-tailed T test
Protocol: To evaluate treatment with DHCQ and HCQ on a mouse model of diet-induced type II diabetes, hyperlipidemia and metabolic syndrome, C57BL/6 mice (8 per group) were fed a high-fat “western-style” diet (60% caloric content from fat; Taconic). In an analogous fashion to that in Example 6, two weeks following initiation of the high-fat diet groups of mice were initiated on treatment with vehicle control, HCQ (10 mg/kg/day) or the HCQ metabolites DHCQ (10 mg/kg/day), DCQ (10 mg/kg/day), or BDCQ (10 mg/kg/day). After 6 weeks of treatment, blood was collected for analysis of glucose, triglyceride, and cholesterol levels.

[5] = system: ARPE-19 cells
Protocol: The major serious risk to long term administration of hydroxychloroquine is retinal accumulation and subsequent ocular toxicity (Terahi et al, 2008. Semin Opthal. (3):201-208. PMID). The ocular deposition of HCQ, DHCQ, and BDCQ was evaluated by direct retinal cellular toxicity by incubating equivalent concentrations of these molecules with the retinal pigmented epithelial cell line ARPE-19. ARPE-19 is a human retinal pigment epithelial cell line with differentiated properties (Dunn et al., Exp Eye Res. 1996 62(2):155-69). ARPE-19 cells were grown to 90% confluence, and then exposed to 10 µg/ml of HCQ, DHCQ, BDCQ, or vehicle control for 24 hours, following which microscopic analysis and photomicroscopy was performed at 40× power.
As described above, ARPE-19 cells were grown to 90% confluence then exposed to 10 μg/ml HCQ, DHCQ, BDCQ, or vehicle control for 24 hours followed by quantitation of cell death by lactate dehydrogenase (LDH) release assay (Abcam).

SMILES | TNF production [1] | steatosis percentage of whole area (liver histology) [2] | AST and ALT compared to treatment with HCQ ([2]; 10 mg/kg/day) | serum ALT ([2]; 10 mg/kg/day) | serum AST ([2]; 10 mg/kg/day) | cytokines, DHCQ monotherapy vs vehicle control, atorvastatin alone, HCQ+atorvastatin and HCQ alone (SAM) ([3]; false discovery rate <0.1%) | levels of inflammatory cytokines in OA synovium vs vehicle control [3] | treatment of diet-induced metabolic disease compared to HCQ, DCQ and BDCQ [4] | total cholesterol [4] | triglycerides [4] | blood glucose [4] | ARPE-19 cellular toxicity by microscopy ([5]; human, 24 h, 10 µg/ml) | ARPE-19 cellular toxicity by microscopy [5]
CC(CCCNCCO)Nc1ccnc2cc(Cl)ccc12 (stereo not drawn) [DHCQ, desethylhydroxychloroquine] | reduced PMBC TNF production | statistically reduced the steatosis percentage | statistical reductions in the AST and ALT as compared to treatment with HCQ | statistically reduced abnormal elevations | statistically reduced abnormal elevations | reduced the levels of multiple inflammatory cytokines including IL-1b, MCP-1, IFNγ, TNF-alpha IL12p40, and IL-12p70 | lower | statistically more effectively than HCQ, DCQ and BDCQ | statistical reductions in total cholesterol | statistical reductions | statistical reduction in blood glucose levels | less ARPE-19 cellular toxicity | –
CCN(CCO)CCCC(C)Nc1ccnc2cc(Cl)ccc12 (stereo not drawn) [HCQ, hydroxychloroquine] | reduced PMBC TNF production | statistically reduced the steatosis percentage | – | only exhibited a trend towards reduction | only exhibited a trend towards reduction | – | lower | – | did not result in statistical reductions | did not result in statistical reductions | did not result in statistical reductions in blood glucose | – | increased cytotoxicity and death
